Laboratory results published in PMC13538172, “Zonisamide nanodiamonds for brain targeting: A comprehensive study utilising in silico, in vitro, in vivo, and molecular investigation for successful nose-to-brain delivery for epilepsy management” (Drug Delivery and Translational Research, 2025).

Columns and labels:
LncRNA PVT-1 = assay: Hippocampal LncRNA PVT-1 expression by quantitative RT-PCR in TLE rats; type: in vivo; conditions: relative quantitation 2-∆∆Ct; TLE control 5.7 folds of normal rats
Method: Temporal lobe epilepsy (TLE) was induced in rats using the pilocarpine model according to the method of […] et al.. Prior to the experiment, rats were housed in plastic cages at October University for Modern Science and Arts under controlled environmental conditions (temperatures of 25°±3°C and 50% humidity) with free access to water and softened standard pellet chow. The rats were injected with pilocarpine (300 mg/kg; i.p.) to induce status epilepticus (SE). Atropine (1 mg/kg; i.p.) was injected 30 minutes before pilocarpine injection to antagonize the peripheral muscarinic activity. SE was defined using the modified Racine scale by observing seizure severity categorized as stages 4 and 5. […] For quantitative RT-PCR analysis of miR-199, Sirtuin 1 (Sirt-1) and long non-coding RNA of plasmacytoma variant translocation1 (LncRNA PVT-1), RNA was isolated from the brain hippocampus tissue with direct-zol RNA Miniprep Plus (CAT no. R2072) and reverse-transcribed into cDNA with the reverse transcriptase (CAT no. 12594100) according to the manufacturer instructions. […] Quantitative reverse transcriptase PCR was performed using a Power SYBR Green PCR Master Mix (CFX96 Instrument; Bio-Rad, USA). The relative quantitation (RQ) of each target gene is quantified according to the 2-ΔΔCt method calculation.

[1] = design: method as in PMID 10837713; conditions: following systemic absorption; cited from earlier work

For `NS(=O)(=O)Cc1noc2ccccc12` [ZNS, Zonisamide], the “hippocampal level of LncRNA-PVT1” value (LncRNA PVT-1) is listed as 3.4 folds and the “Oldendorf Brain Uptake Index” value [1] is listed as 28%.
